One data set deals with T1, Rat Plasma VAP-1 (Rattus norvegicus, UniProt O08590).
T1 construct: from tissue; host or cells: plasma of SD male rats (7-12 weeks old) after oral dosing
T1 sequence (O08590 28-763 limits assumed): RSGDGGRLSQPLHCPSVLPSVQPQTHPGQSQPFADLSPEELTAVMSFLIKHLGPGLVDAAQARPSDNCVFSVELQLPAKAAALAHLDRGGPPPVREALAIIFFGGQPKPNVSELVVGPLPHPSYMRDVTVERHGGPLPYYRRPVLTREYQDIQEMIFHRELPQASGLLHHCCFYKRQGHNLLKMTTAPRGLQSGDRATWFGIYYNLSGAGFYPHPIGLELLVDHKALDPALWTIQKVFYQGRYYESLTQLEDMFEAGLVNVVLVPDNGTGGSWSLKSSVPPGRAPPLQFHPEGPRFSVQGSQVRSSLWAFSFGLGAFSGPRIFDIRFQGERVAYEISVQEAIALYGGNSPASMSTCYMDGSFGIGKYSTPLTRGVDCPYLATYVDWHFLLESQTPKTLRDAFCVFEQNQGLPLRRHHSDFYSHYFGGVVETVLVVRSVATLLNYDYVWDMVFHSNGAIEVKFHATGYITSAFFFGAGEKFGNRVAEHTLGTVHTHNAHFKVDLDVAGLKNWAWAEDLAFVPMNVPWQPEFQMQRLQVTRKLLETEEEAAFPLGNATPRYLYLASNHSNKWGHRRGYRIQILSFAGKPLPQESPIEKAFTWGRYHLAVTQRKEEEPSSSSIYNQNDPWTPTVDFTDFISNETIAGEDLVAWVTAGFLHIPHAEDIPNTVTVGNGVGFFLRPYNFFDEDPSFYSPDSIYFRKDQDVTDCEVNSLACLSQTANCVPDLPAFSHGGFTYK
As to the kind of experiment: (Ex vivo) rat plasma VAP-1 inhibition test after oral administration of the compound. Format: in vivo. The settings on record: 3 hours after oral administration, SD male rats, read-out: inhibition ratio (plasma VAP-1, ex vivo). Here is the method:
(Ex Vivo) Rat Plasma VAP-1 Inhibition Test after Oral Administration of the Compound
The compound was orally administered (0.3-10 mg/kg) to 7-12 week old SD male rats in the non-fasting state. Under anesthesia, the blood was collected in heparin tubes from the jugular vein before the administration and 3, 8 and 24 hours after the administration. The blood was centrifuged at 14000 rpm for 10 minutes to get plasma. The VAP-1 enzyme activity in the plasma was measured by radiochemical enzyme assay.
The radiochemical enzyme assay was conducted by modifying the method of P. H. Yu et al. (Diabetologia 40 1243 (1997)). ^14C-benzylamine (2.5 μM) was added to the obtained plasma, and was incubated at 37° C. for 3 hours. The reaction was terminated by the addition of 100 μL of 2 M citric acid solution to the reaction solution. The oxidative product was extracted using a toluene/ethyl acetate mixture and the radioactivity was measured with a liquid scintillation counter. The inhibition ratio of the compound was calculated using the following equation. Inhibition ratio={1−[Plasma VAP-1 activity after administration of the compound]/[Plasma VAP-1 activity before administration]}×100

Data set [1] deals with Human normal glomerular microvascular endothelial cells. Format: cell-based. As to conditions: 2 days, 100 nM. On the procedure: The Cytotoxicity Inhibition Test in Human Normal Glomerular Microvascular Endothelial Cells
(§1) Human normal glomerular microvascular endothelial cells were plated at 6000 cells/well in a collagen-coated 96-well culture plate. After one day of culture, the medium at each well was completely removed by aspiration and replaced with 50 μL of the compound solution diluted with the basal medium. The basal medium containing 0.1% DMSO was added to control wells. Following, the plate was incubated in CO2 incubator for 30 minutes. Fifty microliter of 2 mM methylamine diluted with the basal medium was added (final concentration 1 mM) to each negative control well (0% inhibition) as well as the compound-containing well, and 50 μL of the basal medium was added to each positive control well (100% inhibition). The plate was incubated in CO2 incubator for 2 days. Ten microliter of CCK-8 was added to each well and the mixtures were incubated in a plate incubator at 37° C. for approximately 2 hours after stirring with a plate shaker. The absorbance of the mixtures at 450 nm was measured with a multiplate reader. The cytotoxicity inhibition ratio of the compound was calculated from the following equation. Inhibition ratio={[Average absorbance of the compound-containing wells]−[Average absorbance of negative control wells]}/{[Average absorbance of positive control wells]−[Average absorbance of negative control wells]}×100

The subject of data set [2] is Human normal hepatic sinusoid-like microvascular endothelial cells. Format: cell-based. As to conditions: 2 days, 300 nM. On the procedure:
The Cytotoxicity Inhibition Test in Human Normal Hepatic Sinusoid-Like Microvascular Endothelial Cells
as §1, with “hepatic sinusoid-like” for “glomerular”

The next data set addresses T2, Human VAP-1 enzyme (Homo sapiens, UniProt Q16853).
T2 construct: purchased R&D Systems, Inc
T2 sequence (Q16853 1-763): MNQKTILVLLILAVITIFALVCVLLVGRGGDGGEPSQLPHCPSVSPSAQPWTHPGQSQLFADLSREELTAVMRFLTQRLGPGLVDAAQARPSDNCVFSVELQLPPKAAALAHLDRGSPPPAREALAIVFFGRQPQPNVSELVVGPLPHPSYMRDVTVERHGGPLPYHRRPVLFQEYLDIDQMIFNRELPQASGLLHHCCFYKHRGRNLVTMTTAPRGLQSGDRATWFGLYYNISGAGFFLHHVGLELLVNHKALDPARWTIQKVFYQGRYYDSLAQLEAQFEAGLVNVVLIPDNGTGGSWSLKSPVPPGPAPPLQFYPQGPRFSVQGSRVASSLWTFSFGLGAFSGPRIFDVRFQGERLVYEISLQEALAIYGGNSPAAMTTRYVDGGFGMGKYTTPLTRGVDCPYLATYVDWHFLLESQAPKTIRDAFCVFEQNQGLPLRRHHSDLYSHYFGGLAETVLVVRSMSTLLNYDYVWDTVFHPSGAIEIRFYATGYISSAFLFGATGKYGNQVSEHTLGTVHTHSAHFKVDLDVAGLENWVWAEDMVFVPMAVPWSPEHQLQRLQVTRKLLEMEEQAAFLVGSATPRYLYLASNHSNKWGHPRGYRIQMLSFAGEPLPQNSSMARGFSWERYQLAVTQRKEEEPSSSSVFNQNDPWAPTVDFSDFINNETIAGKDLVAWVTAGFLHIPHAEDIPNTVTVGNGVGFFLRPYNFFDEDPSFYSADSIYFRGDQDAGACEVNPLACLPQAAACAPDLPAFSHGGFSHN
In words: Human VAP-1 enzyme inhibition test. In kind it is biochemical. The settings on record: 1 h; compound 30 nM; 14C-benzylamine 100 μM; read-out: inhibition ratio (human VAP-1 enzyme). The method, boiled down: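 Recombinant human VAP-1 pre-incubated 20 min at room temperature with compound in DMSO, then reacted with 14C-benzylamine (100 μM final) 1 h at 37 °C. Citric acid stop; oxidized product extracted into toluene/ethyl acetate and counted by liquid scintillation. Inhibition ratio relative to DMSO-only activity.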

For the molecule `CCON=C1CN(c2ncc(-c3cccc(COC(=O)NC(=N)N)c3F)cn2)C1` [Example 2, 3-{2-[3-(Ethoxyimino)azetidin-1-yl]pyrimidin-5-yl}-2-fluorobenzyl carbamimidoylcarbamate], on Rat Plasma VAP-1, the inhibition in vivo at 0.3 mg/kg is at least 50%. For the same molecule, the cytotoxicity inhibition ratio in data set [1] and in data set [2] was at least 50% throughout.

Regarding `[2H]C([2H])([2H])ON=C1CN(c2ncc(-c3cccc(COC(=O)NC(=N)N)c3F)cn2)C1` [Example 3, 2-Fluoro-3-(2-{3-[(methoxy-d3)imino]azetidin-1-yl}pyrimidin-5-yl)benzyl carbamimidoylcarbamate], the inhibition at 0.03 µM at Human VAP-1 enzyme was at least 50%. In addition, the inhibition in vivo at 0.3 mg/kg on Rat Plasma VAP-1 was at least 50%. Further, the cytotoxicity inhibition ratio in data set [1] and in data set [2] was at least 50% each time.

As to `N=C(N)NC(=O)OCc1cccc(-c2cnc(N3CC(=NOCCF)C3)nc2)c1F` [Example 5, 2-Fluoro-3-(2-{3-[(2-fluoroethoxy)imino]azetidin-1-yl}pyrimidin-5-yl)benzyl carbamimidoylcarbamate], the inhibition in vivo at 0.3 mg/kg at Rat Plasma VAP-1 was at least 50%. In addition, the cytotoxicity inhibition ratio in data set [1] and in data set [2] was at least 50% each time.

As for `N=C(N)NC(=O)OCc1cccc(-c2cnc(N3CCC(=NOCc4cc[nH]n4)CC3)nc2)c1F` [Example 171, 3-[2-(4-{[(1H-pyrazol-3-yl)methoxy]imino}piperidin-1-yl)pyrimidin-5-yl]-2-fluorobenzyl carbamimidoylcarbamate], the inhibition at 0.03 µM at Human VAP-1 enzyme is at least 50%. Further, the inhibition in vivo at 0.3 mg/kg on Rat Plasma VAP-1 is at least 50%.

Regarding `N=C(N)NC(=O)OCc1cccc(-c2cnc(N3CCC(=NOCc4cn[nH]c4)CC3)nc2)c1F` [Example 173, 3-[2-(4-{[(1H-pyrazol-4-yl)methoxy]imino}piperidin-1-yl)pyrimidin-5-yl]-2-fluorobenzyl carbamimidoylcarbamate], the inhibition at 0.03 µM on Human VAP-1 enzyme is at least 50%. The inhibition in vivo at 0.3 mg/kg on Rat Plasma VAP-1 is at least 50%.

Take `Cn1cc(CON=C2CCN(c3ncc(-c4cccc(COC(=O)NC(=N)N)c4F)cn3)CC2)cn1` [Example 174, 2-Fluoro-3-[2-(4-{[(1-methyl-1H-pyrazol-4-yl)methoxy]imino}piperidin-1-yl)pyrimidin-5-yl]benzyl carbamimidoylcarbamate]: the inhibition at 0.03 µM on Human VAP-1 enzyme was at least 50%. Also, the inhibition in vivo at 0.3 mg/kg at Rat Plasma VAP-1 is at least 50%.

Turning to `N=C(N)NC(=O)OCc1cccc(-c2cnc(N3CCC(=NOCCn4cccn4)CC3)nc2)c1F` [Example 175, 3-[2-(4-{[2-(1H-pyrazol-1-yl)ethoxy]imino}piperidin-1-yl)pyrimidin-5-yl]-2-fluorobenzyl carbamimidoylcarbamate], the inhibition at 0.03 µM on Human VAP-1 enzyme was at least 50%. Moreover, the inhibition in vivo at 0.3 mg/kg on Rat Plasma VAP-1 is at least 50%.

Regarding `N=C(N)NC(=O)OCc1cccc(-c2cnc(N3CCC(=NOCc4ccncc4)CC3)nc2)c1F` [Example 176, 2-Fluoro-3-(2-{4-[(pyridin-4-ylmethoxy)imino]piperidin-1-yl}pyrimidin-5-yl)benzyl carbamimidoylcarbamate], the inhibition at 0.03 µM at Human VAP-1 enzyme is at least 50%. The inhibition in vivo at 0.3 mg/kg at Rat Plasma VAP-1 was at least 50%.

On to `N=C(N)NC(=O)OCc1cccc(-c2cnc(N3CCC(=NOCCN4C(=O)CCC4=O)CC3)nc2)c1F` [Example 177, 3-[2-(4-{[2-(2,5-Dioxopyrrolidin-1-yl)ethoxy]imino}piperidin-1-yl)pyrimidin-5-yl]-2-fluorobenzyl carbamimidoylcarbamate], for which, at Human VAP-1 enzyme, the inhibition at 0.03 µM is at least 50%. In addition, at Rat Plasma VAP-1, the inhibition in vivo at 0.3 mg/kg was at least 50%.

In the case of `N=C(N)NC(=O)OCc1cccc(-c2cnc(N3CCC(=NOCCN4CCCC4=O)CC3)nc2)c1F` [Example 178, 2-Fluoro-3-[2-(4-{[2-(2-oxopyrrolidin-1-yl)ethoxy]imino}piperidin-1-yl)pyrimidin-5-yl]benzyl carbamimidoylcarbamate], the inhibition at 0.03 µM on Human VAP-1 enzyme was at least 50%. Moreover, the inhibition in vivo at 0.3 mg/kg on Rat Plasma VAP-1 was at least 50%.

On to `N=C(N)NC(=O)OCc1cccc(-c2cnc(N3CCC(=NOc4cncnc4)CC3)nc2)c1F` [Example 182, 2-Fluoro-3-(2-{4-[(pyrimidin-5-yloxy)imino]piperidin-1-yl}pyrimidin-5-yl)benzyl carbamimidoylcarbamate], for which the inhibition at 0.03 µM on Human VAP-1 enzyme is at least 50%. Also, on Rat Plasma VAP-1, the inhibition in vivo at 0.3 mg/kg was at least 50%.

With `N=C(N)NC(=O)OCc1cccc(-c2cnc(N3CCC(=NOc4ncccn4)CC3)nc2)c1F` [Example 183, 2-Fluoro-3-(2-{4-[(pyrimidin-2-yloxy)imino]piperidin-1-yl}pyrimidin-5-yl)benzyl carbamimidoylcarbamate], the inhibition at 0.03 µM on Human VAP-1 enzyme was at least 50%. At Rat Plasma VAP-1, the inhibition in vivo at 0.3 mg/kg is at least 50%.

The record behind these values is patent US10759781B2, “Substituted guanidine derivatives” (UBE INDUSTRIES, LTD., priority 2015, dated 2020).
